Series [1] deals with MV4-11. Put plainly: Antiproliferative activity against human MV4-11 cells assessed as inhibition of cell growth incubated for 72 hrs by CTG- luminescence assay. It is filed as functional, cell-based. The note with it: MV4-11, 72 h.
Another series concerns the target CDK9/cyclin T1 (Homo sapiens, UniProt P50750). Put plainly: Inhibition of CDK9/Cyclin T1 (unknown origin) preincubated for 10 mins followed by ATP and CTD3 addition and measured after 30 mins by mobility shift assay. The format is protein-complex assay.
Series [2] can be described thus: AUC(0 to t) in Sprague-Dawley rat at 1 mg/kg, iv bolus injection measured upto 24 hrs by LC-MS/MS analysis. The format is ADME, organism-based. Details: dose 1 mg/kg, time < 24 hrs, route iv. Particulars: in vivo.
The nature of series [3]: Volume of distribution at steady state in Sprague-Dawley rat at 1 mg/kg, iv bolus injection measured upto 24 hrs by LC-MS/MS analysis. The format is ADME, organism-based. The note with it: in vivo, read-out: Vdss.
A short description of series [4]: Initial plasma concentration in Sprague-Dawley rat at 1 mg/kg, iv bolus injection measured upto 24 hrs by LC-MS/MS analysis. It is filed as ADME, organism-based.
Series [5] is described as follows: Clearance in Sprague-Dawley rat at 1 mg/kg, iv bolus injection measured upto 24 hrs by LC-MS/MS analysis. The format is ADME, organism-based. Particulars: in vivo.
A short description of series [6]: MRT(0 to t) in Sprague-Dawley rat at 1 mg/kg, iv bolus injection measured upto 24 hrs by LC-MS/MS analysis. The note with it: in vivo. The format is ADME, organism-based.
A short description of series [7]: Kinetic solubility of the compound in pH 7.4 PBS buffer incubated for 24 hrs under shaking condition by HPLC analysis. The format is physicochemical. Particulars: read-out: Kinetic_solubility.
Series [8] is described as follows: Half life in Sprague-Dawley rat at 1 mg/kg, iv bolus injection measured upto 24 hrs by LC-MS/MS analysis. The format is ADME, organism-based. The note with it: in vivo.
The nature of series [9]: AUC(0 to infinity) in Sprague-Dawley rat at 1 mg/kg, iv bolus injection measured upto 24 hrs by LC-MS/MS analysis. The note with it: in vivo. Also noted: time < 24 hrs, dose 1 mg/kg, route iv. It is filed as ADME, organism-based.
A short description of series [10]: MRT(0 to infinity) in Sprague-Dawley rat at 1 mg/kg, iv bolus injection measured upto 24 hrs by LC-MS/MS analysis. Particulars: in vivo. It is filed as ADME, organism-based.
A short description of series [11]: Elimination rate constant in Sprague-Dawley rat at 1 mg/kg, iv bolus injection measured upto 24 hrs by LC-MS/MS analysis. It is filed as ADME, organism-based. The note with it: in vivo.
Series [12] relates to MV4-11. As to the kind of experiment: Antiproliferative activity against human MV4-11 cells assessed as inhibition of cell growth at 0.37 uM incubated for 72 hrs by CTG- luminescence assay relative to control. It is filed as functional.
The test system of series [13] is MV4-11. As to the kind of experiment: Inhibition of RNA polymerase 2 phosphorylation at Ser2 residue in human MV4-11 cells at 1 uM incubated for 24 hrs by Western blot analysis. It is filed as cell-based. In general terms: In western blotting, separated proteins are transferred to a membrane and probed.
Series [14] has as its system MV4-11. As to the kind of experiment: Downregulation of Mcl-1 expression in human MV4-11 cells at 1 uM incubated for 24 hrs by Western blot analysis. The format is functional, cell-based.
Series [15] has as its system MV4-11. As to the kind of experiment: Downregulation of c-Myc expression in human MV4-11 cells at 1 uM incubated for 24 hrs by Western blot analysis. It is filed as functional, cell-based.

Data on 27 molecules can be found in ChEMBL document CHEMBL5137023, “Discovery of 2H-benzo[b][1,4]oxazin-3(4H)-one derivatives as potent and selective CDK9 inhibitors that enable transient target engagement for the treatment of hematologic malignancies” (Eur J Med Chem, 2022).

Converted amounts (≈) assume the structure as drawn. The source made the active and inactive calls. Where only a bound is given, the exact number is not on record here.

CDK9/cyclin T1, sequence (O60563 whole entry): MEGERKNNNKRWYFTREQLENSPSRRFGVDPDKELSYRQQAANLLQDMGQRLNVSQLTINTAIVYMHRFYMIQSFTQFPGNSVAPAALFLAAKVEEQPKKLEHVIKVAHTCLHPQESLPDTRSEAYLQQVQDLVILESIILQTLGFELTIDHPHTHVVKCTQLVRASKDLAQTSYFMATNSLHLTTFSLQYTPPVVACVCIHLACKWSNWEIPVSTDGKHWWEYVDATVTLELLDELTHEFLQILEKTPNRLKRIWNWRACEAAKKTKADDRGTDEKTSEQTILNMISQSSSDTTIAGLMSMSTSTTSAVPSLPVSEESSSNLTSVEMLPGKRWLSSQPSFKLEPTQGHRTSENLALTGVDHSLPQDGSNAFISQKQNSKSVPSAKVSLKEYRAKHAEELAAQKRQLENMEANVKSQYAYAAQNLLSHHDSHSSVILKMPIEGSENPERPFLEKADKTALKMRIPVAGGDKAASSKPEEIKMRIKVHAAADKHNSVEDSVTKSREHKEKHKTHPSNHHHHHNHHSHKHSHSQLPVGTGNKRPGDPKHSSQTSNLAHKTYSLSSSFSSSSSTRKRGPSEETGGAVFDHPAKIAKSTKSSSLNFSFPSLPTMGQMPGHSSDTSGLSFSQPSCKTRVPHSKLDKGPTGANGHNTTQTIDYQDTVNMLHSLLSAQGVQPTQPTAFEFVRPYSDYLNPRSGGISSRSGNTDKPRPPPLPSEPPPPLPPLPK
CDK9/cyclin T1, sequence (P50750 whole entry): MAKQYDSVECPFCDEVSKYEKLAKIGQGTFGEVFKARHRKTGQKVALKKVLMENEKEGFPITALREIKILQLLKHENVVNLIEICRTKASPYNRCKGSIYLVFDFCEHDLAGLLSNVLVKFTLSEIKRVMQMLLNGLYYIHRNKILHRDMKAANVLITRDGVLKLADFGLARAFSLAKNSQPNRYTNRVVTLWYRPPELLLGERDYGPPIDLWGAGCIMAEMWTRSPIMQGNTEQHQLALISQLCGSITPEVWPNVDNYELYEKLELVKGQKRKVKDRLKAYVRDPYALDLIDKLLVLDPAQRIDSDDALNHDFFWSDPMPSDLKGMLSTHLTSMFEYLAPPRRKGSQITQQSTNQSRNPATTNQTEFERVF

The IC50 is the concentration that gives 50% inhibition. Regarding `CCN1C(=O)COc2c(CN3CCOCC3)cc(Nc3nccc(-c4cccnc4)n3)cc21`, the IC50 in the series on MV4-11 [1] is 306 nM; at CDK9/cyclin T1, 6.7 nM.
Consider `CCN1C(=O)COc2c(CN3CCOCC3)cc(Nc3cc(-c4ccc(F)cc4OC)c(Cl)cn3)cc21`, for which the IC50 on CDK9/cyclin T1 worked out at 80 nM.
Take `CCN1C(=O)COc2c(CN(C)CCN(C)C)cc(Nc3ncc(F)c(-c4ccc(F)cc4OC)n3)cc21`: the IC50 with MV4-11 [1] amounted to 143 nM; on CDK9/cyclin T1 it was 2.2 nM.
For `CCN1C(=O)COc2c(CN3CCNCC3)cc(Nc3ncc(F)c(-c4ccc(F)cc4OC)n3)cc21`, in that order: 128 nM and 4.2 nM.
For `CCN1C(=O)COc2c(CN3CCOCC3)cc(Nc3nccc(-c4ccc(F)cc4OC)n3)cc21`, in that order: 228 nM and 2.6 nM.
As for `CCN1C(=O)COc2c(CN3CCOCC3)cc(Nc3nccc(-c4ccc5nn(C)c(C(C)C)c5c4)n3)cc21`, the half-maximal inhibitory concentration (IC50) at CDK9/cyclin T1 came out at 21 nM.
For `CCN1C(=O)COc2c(CN3CCN(C(C)C)CC3)cc(Nc3ncc(F)c(-c4ccc(F)cc4OC)n3)cc21`, the IC50 stood at 149 nM with MV4-11 [1] and 3.4 nM at CDK9/cyclin T1.
For `CCN1C(=O)COc2c(CN3CCCCC3)cc(Nc3ncc(F)c(-c4ccc(F)cc4OC)n3)cc21`, in that order: 50 nM and 2.7 nM.
In the same order, the values of `CCN1C(=O)COc2c(CN3CCOCC3)cc(Nc3nccc(-c4ccc5nnn(C(C)C)c5c4)n3)cc21` are 184 nM and 13 nM.
For `CCN1C(=O)COc2c(CN(C)CCOC)cc(Nc3ncc(F)c(-c4ccc(F)cc4OC)n3)cc21`, in that order: 65 nM and 2.3 nM.
In general, AUC(0-t) refers to the area under the concentration-time curve up to a stated or last time point. A low value points to low exposure. What is called clearance is the volume of plasma or blood freed of the substance per unit of time. The low end stands for inefficient removal, the high end for efficient removal. One may read the MRT last as the average time that molecules of a dose stay in the body. Usually half-life stands for the time needed for the level to fall by half in the phase considered. A high value points to slow decline. One may read the AUC(0-inf) as the area under the concentration-time curve extrapolated to infinity. Usually MRT inf stands for a mean duration of stay, worked out from the concentration-time curve. Regarding `CCN1C(=O)COc2c(CN3CCN(S(C)(=O)=O)CC3)cc(Nc3ncc(F)c(-c4ccc(F)cc4OC)n3)cc21`, in series [2], the exposure AUC(0-t) at 24 h was found to be 245 ng·h/mL. Also, the Vd in series [3] was found to be 1.01 L/kg. The same molecule gave a C0 at 24 h in [4] of 1060 ng/mL. Besides, the clearance in series [5] worked out at 68.1 mL/min/kg. For the same molecule, in series [6], the MRT last at 24 h is 14.4 min. Besides, the solubility kinetic at 24 h in series [7] was 30.5 µg/mL (≈ 51.8 µM). Moreover, the IC50 in the series on MV4-11 [1] was determined as 15 nM; at CDK9/cyclin T1, 3 nM. The half-life in series [8] is 15.9 min. The total exposure AUC(0-inf) in series [9] was 246 ng·h/mL. Moreover, in [10], the mean residence time (MRT inf) stood at 14.8 min. Also, the k el at 24 h in series [11] was 0.000728 s⁻¹.
With `CCN1C(=O)COc2c(CN3CCSCC3)cc(Nc3ncc(F)c(-c4ccc(F)cc4OC)n3)cc21`, the IC50 with MV4-11 [1] is 130 nM; at CDK9/cyclin T1, 3.6 nM.
For `CCN1C(=O)COc2c(CN3CCC(N(C)C)C3)cc(Nc3ncc(F)c(-c4ccc(F)cc4OC)n3)cc21` (centres undefined), in that order: 124 nM and 3.7 nM.
On to `CCN1C(=O)COc2c(CN3CCOCC3)cc(Nc3nccc(-c4cn(C)c5ccccc45)n3)cc21`, for which the IC50 on CDK9/cyclin T1 was found to be 39 nM.
For the molecule `CCN1C(=O)COc2c(CN3CCN(C)CC3)cc(Nc3ncc(F)c(-c4ccc(F)cc4OC)n3)cc21`, the values for the IC50 in the series on MV4-11 [1] and at CDK9/cyclin T1 were 253 nM and 5.4 nM, respectively.
Regarding `CCN(CC)Cc1cc(Nc2ncc(F)c(-c3ccc(F)cc3OC)n2)cc2c1OCC(=O)N2CC`, in series [2], the AUC(0-t) at 24 h was determined as 107 ng·h/mL. In series [3], the Vd was determined as 6.45 L/kg. The C0 at 24 h in series [4] stood at 155 ng/mL. The clearance in series [5] was 168 mL/min/kg. The molecule also returned a mean residence time (MRT last) at 24 h in series [6] of 36.7 min. Besides, the solubility kinetic at 24 h in series [7] was determined as 3.9 µg/mL (≈ 7.84 µM). For the same molecule, the IC50 with MV4-11 [1] came to 26 nM; at CDK9/cyclin T1 it was 2.6 nM. Further, in series [8], the half-life is 29.8 min. The AUC(0-inf) in [9] was 111 ng·h/mL. In series [10], the mean residence time (MRT inf) is 41.3 min. Moreover, the k el at 24 h in series [11] was 0.0004 s⁻¹.
For `CCN1C(=O)COc2c(CN3CCOCC3)cc(Nc3cc(-c4ccc(F)cc4OC)c(F)cn3)cc21`, the IC50 on CDK9/cyclin T1 was 42 nM.
Turning to `CCN1C(=O)COc2c(CN3CCOCC3)cc(Nc3nccc(-c4ccc(F)cc4OCc4ccccc4)n3)cc21`, at CDK9/cyclin T1, the IC50 was over 100 nM.
Broadly, the inhibition is the change of the read-out against control, counted positive when it falls. Regarding `CCN1C(=O)COc2c(CN3CCS(=O)(=O)CC3)cc(Nc3ncc(F)c(-c4ccc(F)cc4OC)n3)cc21`, the inhibition at 0.37 µM with MV4-11 [12] was 15%. Further, at CDK9/cyclin T1, the IC50 came out at 6 nM.
For `CCN1C(=O)COc2c(CN3CCOC[C@H]3C)cc(Nc3ncc(F)c(-c4ccc(F)cc4OC)n3)cc21`, the figures for the concentration for half-maximal inhibition (IC50) in the series with MV4-11 [1] and on CDK9/cyclin T1 were 364 nM and 1.9 nM, respectively.
For `CN1CC[C@H](c2c(O)cc(O)c3c(=O)cc(-c4ccccc4Cl)oc23)[C@H](O)C1`, the inhibition entry in the series with MV4-11 [13] was “Active”. The outcome in the series with MV4-11 [14] and in the series with MV4-11 [15] was Active.
With `CCN1C(=O)COc2c(CN3CCOCC3)cc(Nc3nccc(-c4ccc5nc(C)n(C(C)C)c5c4)n3)cc21`, the 50% inhibitory concentration (IC50) at CDK9/cyclin T1 stood at 23 nM.
For `CCN1C(=O)COc2c(CN3CCOCC3)cc(Nc3ncc(F)c(-c4ccc(F)cc4OC)n3)cc21`, the IC50 in the series on MV4-11 [1] amounted to 105 nM; at CDK9/cyclin T1, 1.1 nM.
As to `CCN1C(=O)COc2c(CN3CCC(N4CCOCC4)CC3)cc(Nc3ncc(F)c(-c4ccc(F)cc4OC)n3)cc21`, the IC50 with MV4-11 [1] amounted to 109 nM; on CDK9/cyclin T1, 2.1 nM.
For `CCN1C(=O)COc2c(CN(C)CCNC)cc(Nc3ncc(F)c(-c4ccc(F)cc4OC)n3)cc21`, in that order: 89 nM and 2.5 nM.
For `CCN1CCN(Cc2cc(Nc3ncc(F)c(-c4ccc(F)cc4OC)n3)cc3c2OCC(=O)N3CC)CC1`, in that order: 142 nM and 4.4 nM.
In the same order, the values of `CCN1C(=O)COc2c(CN3CCN(C4COC4)CC3)cc(Nc3ncc(F)c(-c4ccc(F)cc4OC)n3)cc21` are 105 nM and 1.6 nM.
